In US11072598B2, “Somatostatin modulators and uses thereof” (CRINETICS PHARMACEUTICALS, INC., priority 2017, dated 2021):

Biological target: T1, human somatostatin receptor subtype 2 (Homo sapiens, UniProt P30874)
T1 construct: expressed in transfected cells
Assay: cAMP functional assay for SSTR2 agonists
Type: cell-based
Settings: inhibition of cAMP activities via human SST2 receptor (SSTR2), CHO-K1 cells; read-out: EC50
Excerpt: General overview: All five SSTR subtypes are Gi coupled G-protein coupled receptors (GPCRs) that lead to decreases in intracellular cyclic AMP (cAMP) when activated by an agonist. Therefore, measurement of intracellular cAMP levels can be used to assess whether compounds of the invention are agonists of SSTR subtypes (John Kelly, Troy Stevens, W. Joseph Thompson, and Roland Seifert, Current Protocols in Pharmacology, 2005, 2.2.1-2.2). One example of an intracellular cAMP assay is described below. cAMP assay protocol:
Four days prior to the assay, 5,000 Chinese hamster ovary cells (CHO-K1, ATCC #CCL-61) stably expressing the human somatostatin receptor subtype 2 are plated in each well of a 96-well tissue culture-treated plate in Ham's F12 growth media (ThermoFisher #10-080-CM) supplemented with 10% donor bovine serum (Gemini Bio-Products #100-506), 100 U/mL penicillin; 100 ug/mL streptomycin; 2 mM L-glutamine (Gemini Bio-Products #400-110) and 0.2 mg/mL hygromycin B (GoldBio #31282-04-9). The cells are cultured at 37° C., 5% CO2 and 95% humidity. On the day of the assay, the media is aspirated and the cells are treated with 50 μL of 1.6 μM NKH477 (Sigma #N3290) plus various dilutions of compounds of the invention in assay buffer [1× Hank's Balanced Salt Solution (ThermoFisher #SH3058802), 0.5 mM HEPES pH 7.4, 0.1% bovine serum albumin, 0.2 mM 3-Isobutyl-1-methylxanthine (IBMX, VWR #200002-790)]. The cells are incubated for 20 minutes at 37° C. […] The cells are treated with 50 μL of lysis buffer (HRTF cAMP kit, Cisbio). The lysate is transferred to 384-well plates and cAMP detection and visualization antibodies are added and incubated for 1-24 hours at room temperature. The time-resolved fluorescent signal is read with a Tecan M1000Pro multiplate reader. The intracellular cAMP concentrations are calculated by regression to a standard curve and are plotted vs. the concentration of the compounds of the invention and the EC50 of the compounds are calculated using standard methods. All data manipluations are in GraphPad Prism v6.

T1 sequence (P30874 whole entry): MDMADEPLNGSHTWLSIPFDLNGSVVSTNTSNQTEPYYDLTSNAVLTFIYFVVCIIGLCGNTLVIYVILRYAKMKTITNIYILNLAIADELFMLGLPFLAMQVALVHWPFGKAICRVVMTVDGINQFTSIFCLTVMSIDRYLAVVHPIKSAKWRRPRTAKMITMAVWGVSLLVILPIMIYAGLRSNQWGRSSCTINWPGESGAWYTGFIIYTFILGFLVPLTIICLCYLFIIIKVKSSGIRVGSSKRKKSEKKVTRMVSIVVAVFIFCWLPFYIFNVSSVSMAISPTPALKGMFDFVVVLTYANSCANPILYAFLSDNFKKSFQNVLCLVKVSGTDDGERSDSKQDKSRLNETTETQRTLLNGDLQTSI

| EC50 [nM] | SMILES |
| --- | --- |
| < 10 | Cc1cc(F)cc(-c2cnnc(-c3cc4ccc(F)cc4[nH]3)c2N2CCC(N)CC2)c1 [Compound 3-4, 1-[3-(6-fluoro-1H-indol-2-yl)-5-(3-fluoro-5-methylphenyl)pyridazin-4-yl]piperidin-4-amine] |
| < 10 | Cc1cc(F)cc(-c2cnc(O)c(-c3nc4cc(Cl)ccc4[nH]3)c2N2CCC(N)CC2)c1 [Compound 2-4, 4-(4-aminopiperidin-1-yl)-3-(5-chloro-1H-1,3-benzodiazol-2-yl)-5-(3-fluoro-5-methylphenyl)pyridin-2-ol] |
| < 10 | Cc1cc(F)cc(-c2cnnc(-c3cc4ccc(C)cc4[nH]3)c2N2CCC(N)CC2)c1 [Compound 3-16, 1-[5-(3-fluoro-5-methylphenyl)-3-(6-methyl-1H-indol-2-yl)pyridazin-4-yl]piperidin-4-amine] |
| < 10 | CONC(=O)Nc1ccc2[nH]c(-c3c(N)ncc(-c4cc(C)cc(F)c4)c3N3CCC(N)CC3)nc2c1 [Compound 1-46, 1-{2-[2-amino-4-(4-aminopiperidin-1-yl)-5-(3-fluoro-5-methylphenyl)pyridin-3-yl]-1H-1,3-benzodiazol-5-yl}-3-methoxyurea] |
| < 10 | COc1cc(F)cc(-c2cnc(N)c(-c3nc4cc(F)cc(F)c4[nH]3)c2N2CCC(N)CC2)c1 [Compound 1-67, 4-(4-aminopiperidin-1-yl)-3-(5,7-difluoro-1H-1,3-benzodiazol-2-yl)-5-(3-fluoro-5-methoxyphenyl)pyridin-2-amine] |
| < 10 | COc1cc(C)cc(-c2cnc(N)c(-c3nc4cc(F)cc(F)c4[nH]3)c2N2CCC(N)CC2)c1 [Compound 1-80, 4-(4-aminopiperidin-1-yl)-3-(5,7-difluoro-1H-1,3-benzodiazol-2-yl)-5-(3-methoxy-5-methylphenyl)pyridin-2-amine] |
| < 10 | Cc1cc(F)cc(-c2cnnc(-c3cc4cc(C#N)ccc4[nH]3)c2N2CCC(N)CC2)c1 [Compound 3-17, 2-[4-(4-aminopiperidin-1-yl)-5-(3-fluoro-5-methylphenyl)pyridazin-3-yl]-1H-indole-5-carbonitrile] |
| < 10 | Cc1cc(F)cc(-c2cnc(N)c(-c3nc4c(F)cc(OCC#N)cc4[nH]3)c2N2CCC(N)CC2)c1 [Compound 1-60, 2-({2-[2-amino-4-(4-aminopiperidin-1-yl)-5-(3-fluoro-5-methylphenyl)pyridin-3-yl]-4-fluoro-1H-1,3-benzodiazol-6-yl}oxy)acetonitrile] |
| > 100 | Cc1cc(Cl)cc(-c2cnc(N)c(C=NO)c2N2CCC(N)CC2)c1 [Compound 1-39, 4-(4-aminopiperidin-1-yl)-5-(3-chloro-5-methylphenyl)-3-[(hydroxyimino)methyl]pyridin-2-amine] |
| < 10 | CNc1ncc(-c2cc(C)cc(F)c2)c(N2CCC(N)CC2)c1-c1nc2cccc(Cl)c2[nH]1 [Compound 1-72, 4-(4-aminopiperidin-1-yl)-3-(7-chloro-1H-1,3-benzodiazol-2-yl)-5-(3-fluoro-5-methylphenyl)-N-methylpyridin-2-amine] |
| 10 to 100 | Cc1cc(F)cc(-c2cnc(O)c(-c3nc4cc(F)c(F)cc4[nH]3)c2N2CCC(N)CC2)c1 [Compound 2-7, 4-(4-aminopiperidin-1-yl)-3-(5,6-difluoro-1H-1,3-benzodiazol-2-yl)-5-(3-fluoro-5-methylphenyl)pyridin-2-ol] |
| < 10 | COc1ccc2[nH]c(-c3nncc(-c4cc(C)cc(F)c4)c3N3CCC(N)CC3)cc2c1 [Compound 3-9, 1-[5-(3-fluoro-5-methylphenyl)-3-(5-methoxy-1H-indol-2-yl)pyridazin-4-yl]piperidin-4-amine] |
| < 10 | Cc1cc(F)cc(-c2cnc(N)c(-c3nc4cc(OC5CC5)ccc4[nH]3)c2N2CCC(N)CC2)c1 [Compound 1-20, 4-(4-aminopiperidin-1-yl)-3-(5-cyclopropoxy-1H-1,3-benzodiazol-2-yl)-5-(3-fluoro-5-methylphenyl)pyridin-2-amine] |
